We go through twelve molecules from paper PMC10123497 (RSC Advances, 2023).

The term IC50 denotes the concentration that gives 50% inhibition.

One data set deals with HepG2. Kind of data set: MTT in vitro cytotoxicity assay. Conditions: for IC50: Homo sapiens, HepG2, 24 h, read-out: In vitro cytotoxicity activity IC50 ± SD; for Selectivity index (SI): (IC50 of WI-38)/(IC50 of HepG2).
The next data set deals with MDA-MB-231. In words: MTT in vitro cytotoxicity assay. The format is cell-based, human. The settings on record: for Selectivity index (SI): (IC50 of WI-38)/(IC50 of MDA-MB-231).
Data set [1] in a line: MTT cytotoxicity on non-tumorigenic normal cell line. Conditions: human, WI-38 cells (non-tumorigenic normal lung fibroblasts). The format is cell-based.
For another data set, the system named is HCT-116. Kind of data set: MTT in vitro cytotoxicity assay. The settings on record: for Selectivity index (SI): (IC50 of WI-38)/(IC50 of HCT-116); for IC50: Homo sapiens, HCT-116, 24 h, read-out: In vitro cytotoxicity activity IC50 ± SD.
The next data set relates to MCF-7. In words: MTT in vitro cytotoxicity assay. The settings on record: for Selectivity index (SI): (IC50 of WI-38)/(IC50 of MCF-7); for IC50: read-out: In vitro cytotoxicity activity IC50 ± SD.
The subject of data set [2] is MCF-7 cells. In words: Cell cycle analysis by flow cytometry. The format is cell-based, human. Conditions: MCF-7 treated at IC50 = 3.82 μM. In general terms: A flow cytometer gives signals particle by particle.
In data set [3] the test system is MCF-7 cells. Kind of data set: Annexin-V/propidium iodide apoptosis assay. The format is cell-based, human.
For the next data set, the system named is p53. Kind of data set: qRT-PCR gene expression in MCF-7. The format is cell-based, human. The settings on record: MCF-7, vs untreated control = 1.
The next data set deals with EGFR^Wt (Homo sapiens, UniProt P00533). In words: EGFR Kinase Assay Kit. The format is biochemical.
A further data set deals with EGFR^(L858R) (Homo sapiens, UniProt P00533, L858R). Kind of data set: EGFR. The format is biochemical.
The next data set addresses VEGFR2 (Homo sapiens, UniProt P35968). In words: biochemical.

Read-outs that look alike come from different tables or passages of the source.

EGFR^(L858R), sequence (P00533 25-1210 L858R): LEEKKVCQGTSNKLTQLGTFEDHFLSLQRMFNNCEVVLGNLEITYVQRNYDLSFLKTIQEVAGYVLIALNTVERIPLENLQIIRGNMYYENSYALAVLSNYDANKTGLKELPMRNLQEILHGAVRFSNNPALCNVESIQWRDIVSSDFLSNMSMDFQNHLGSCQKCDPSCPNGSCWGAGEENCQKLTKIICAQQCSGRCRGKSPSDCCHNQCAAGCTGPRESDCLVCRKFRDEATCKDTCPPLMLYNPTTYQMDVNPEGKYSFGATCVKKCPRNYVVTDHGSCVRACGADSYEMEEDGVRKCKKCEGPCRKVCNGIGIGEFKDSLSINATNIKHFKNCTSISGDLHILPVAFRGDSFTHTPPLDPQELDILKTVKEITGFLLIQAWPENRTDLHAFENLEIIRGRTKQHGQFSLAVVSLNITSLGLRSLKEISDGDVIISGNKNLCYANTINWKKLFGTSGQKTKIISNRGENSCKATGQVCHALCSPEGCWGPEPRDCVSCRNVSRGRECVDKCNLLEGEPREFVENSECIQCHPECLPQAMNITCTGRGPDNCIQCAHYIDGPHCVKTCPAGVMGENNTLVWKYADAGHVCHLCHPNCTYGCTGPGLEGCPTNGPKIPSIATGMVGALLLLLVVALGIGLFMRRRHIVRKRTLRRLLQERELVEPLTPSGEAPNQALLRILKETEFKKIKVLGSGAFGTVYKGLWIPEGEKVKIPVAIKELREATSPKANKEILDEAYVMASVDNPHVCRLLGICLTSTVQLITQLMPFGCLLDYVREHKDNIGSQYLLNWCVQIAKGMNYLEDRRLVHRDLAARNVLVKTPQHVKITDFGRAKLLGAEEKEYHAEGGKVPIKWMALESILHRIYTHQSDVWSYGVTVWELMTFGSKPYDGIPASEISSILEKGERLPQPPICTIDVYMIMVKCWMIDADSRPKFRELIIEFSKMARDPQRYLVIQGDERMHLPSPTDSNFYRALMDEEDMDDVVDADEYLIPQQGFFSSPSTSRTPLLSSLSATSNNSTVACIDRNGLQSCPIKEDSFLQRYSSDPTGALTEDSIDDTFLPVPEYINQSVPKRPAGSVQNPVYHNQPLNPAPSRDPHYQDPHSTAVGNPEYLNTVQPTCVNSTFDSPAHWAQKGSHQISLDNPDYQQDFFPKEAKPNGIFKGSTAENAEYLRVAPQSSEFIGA
VEGFR2, sequence (P35968 20-1356): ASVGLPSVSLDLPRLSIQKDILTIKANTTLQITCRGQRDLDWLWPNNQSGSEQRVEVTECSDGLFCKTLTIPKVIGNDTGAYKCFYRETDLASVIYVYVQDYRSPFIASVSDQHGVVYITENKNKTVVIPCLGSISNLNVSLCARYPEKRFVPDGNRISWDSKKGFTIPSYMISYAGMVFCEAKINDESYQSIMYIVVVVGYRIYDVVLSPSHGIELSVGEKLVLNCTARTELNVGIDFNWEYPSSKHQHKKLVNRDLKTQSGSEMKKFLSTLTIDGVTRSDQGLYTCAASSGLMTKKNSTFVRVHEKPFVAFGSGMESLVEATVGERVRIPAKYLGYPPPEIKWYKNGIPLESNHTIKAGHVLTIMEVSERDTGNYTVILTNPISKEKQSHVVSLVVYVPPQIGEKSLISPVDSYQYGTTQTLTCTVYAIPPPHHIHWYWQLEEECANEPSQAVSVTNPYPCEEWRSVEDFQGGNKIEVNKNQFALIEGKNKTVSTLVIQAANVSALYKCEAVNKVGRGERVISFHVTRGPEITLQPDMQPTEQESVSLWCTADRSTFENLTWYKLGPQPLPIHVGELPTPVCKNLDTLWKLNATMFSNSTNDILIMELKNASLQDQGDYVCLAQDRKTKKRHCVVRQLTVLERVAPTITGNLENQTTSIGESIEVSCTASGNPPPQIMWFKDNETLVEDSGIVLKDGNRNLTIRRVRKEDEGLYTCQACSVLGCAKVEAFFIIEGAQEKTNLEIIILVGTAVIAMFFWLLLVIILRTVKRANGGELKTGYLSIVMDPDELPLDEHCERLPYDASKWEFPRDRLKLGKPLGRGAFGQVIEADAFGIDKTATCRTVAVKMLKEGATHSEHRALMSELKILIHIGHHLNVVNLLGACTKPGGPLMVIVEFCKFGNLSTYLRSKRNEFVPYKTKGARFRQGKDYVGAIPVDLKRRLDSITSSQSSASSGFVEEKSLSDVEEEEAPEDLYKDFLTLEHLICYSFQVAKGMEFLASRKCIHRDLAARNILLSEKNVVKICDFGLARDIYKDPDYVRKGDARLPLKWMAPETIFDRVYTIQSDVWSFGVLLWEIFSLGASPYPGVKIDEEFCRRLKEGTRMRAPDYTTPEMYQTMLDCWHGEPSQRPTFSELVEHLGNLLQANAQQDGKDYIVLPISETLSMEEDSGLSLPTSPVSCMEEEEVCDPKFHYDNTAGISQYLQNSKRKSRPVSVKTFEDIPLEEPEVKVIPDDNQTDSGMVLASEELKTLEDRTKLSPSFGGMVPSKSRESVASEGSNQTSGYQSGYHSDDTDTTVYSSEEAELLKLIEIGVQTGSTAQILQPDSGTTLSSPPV
EGFR^Wt, sequence (P00533 25-1210): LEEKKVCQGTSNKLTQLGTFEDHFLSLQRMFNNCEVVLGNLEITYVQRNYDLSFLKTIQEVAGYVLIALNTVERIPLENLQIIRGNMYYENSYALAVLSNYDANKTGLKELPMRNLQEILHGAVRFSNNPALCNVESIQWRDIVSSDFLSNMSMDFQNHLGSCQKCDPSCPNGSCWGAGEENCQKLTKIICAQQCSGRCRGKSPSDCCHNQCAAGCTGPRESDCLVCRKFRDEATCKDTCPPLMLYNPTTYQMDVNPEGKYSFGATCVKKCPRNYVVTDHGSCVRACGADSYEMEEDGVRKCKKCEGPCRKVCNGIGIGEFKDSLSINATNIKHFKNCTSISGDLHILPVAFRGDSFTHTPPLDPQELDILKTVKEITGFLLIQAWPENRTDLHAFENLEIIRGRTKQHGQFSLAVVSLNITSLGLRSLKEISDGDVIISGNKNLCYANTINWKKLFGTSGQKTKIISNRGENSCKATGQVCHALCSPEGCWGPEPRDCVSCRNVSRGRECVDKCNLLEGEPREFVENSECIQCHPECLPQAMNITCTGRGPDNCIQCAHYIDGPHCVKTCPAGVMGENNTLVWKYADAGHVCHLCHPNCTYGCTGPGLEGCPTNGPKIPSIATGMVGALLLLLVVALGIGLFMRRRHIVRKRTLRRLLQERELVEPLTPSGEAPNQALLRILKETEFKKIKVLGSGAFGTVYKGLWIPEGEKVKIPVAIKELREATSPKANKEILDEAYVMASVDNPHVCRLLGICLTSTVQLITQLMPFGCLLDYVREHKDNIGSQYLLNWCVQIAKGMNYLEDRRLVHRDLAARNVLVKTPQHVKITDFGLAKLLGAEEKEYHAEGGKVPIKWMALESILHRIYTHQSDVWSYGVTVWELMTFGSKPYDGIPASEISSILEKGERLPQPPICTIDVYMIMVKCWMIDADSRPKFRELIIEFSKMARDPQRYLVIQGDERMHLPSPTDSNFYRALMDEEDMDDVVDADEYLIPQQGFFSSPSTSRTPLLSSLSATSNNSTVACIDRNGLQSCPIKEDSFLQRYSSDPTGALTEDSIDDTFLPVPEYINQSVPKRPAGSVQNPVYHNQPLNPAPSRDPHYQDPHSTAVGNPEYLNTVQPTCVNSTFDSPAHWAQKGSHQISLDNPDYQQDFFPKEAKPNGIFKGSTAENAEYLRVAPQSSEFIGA

Turning to `COc1cccc2c1C(=O)c1c(O)c3c(c(O)c1C2=O)C[C@@](O)(C(=O)CO)C[C@@H]3O[C@H]1C[C@H](N)[C@H](O)[C@H](C)O1` [Doxorubicin, doxorubicin, reference compound], in the data set with HepG2, the concentration for half-maximal inhibition (IC50) is 4.5 ± 0.2 µM.
With `N#CC(C(=O)Nc1cccc(C(F)(F)F)c1)=C1Sc2nc3ccc(S(=O)(=O)N4CCCC4)cc3nc2S1` [Compound 10c, 2-Cyano-2-(6-(pyrrolidin-1-ylsulfonyl)-[1,3]dithiolo[4,5-b]quinoxalin-2-ylidene)-N-(3-(trifluoromethyl)phenyl)acetamide], the “Selectivity index (SI)” value in the data set on MDA-MB-231 worked out at 8.48; in the data set on HepG2, 3.82; in the data set with HCT-116 it was 7.01; in the data set with MCF-7, 10.61. Moreover, the IC50 at 24 h in data set [1] is 65.1 ± 3.5 µM. The IC50 in the data set with HepG2 turned out to be 17 ± 1.3 µM; in the data set with HCT-116, 9.26 ± 0.8 µM; in the data set on MCF-7 (MCF-7, MTT, 24 h) it was 6.13 ± 0.4 µM.
`N#CC(C(=O)NN=C1C(=O)Nc2ccccc21)=C1Sc2nc3ccc(S(=O)(=O)N4CCCC4)cc3nc2S1` [Compound 10e, 2-Cyano-N′-(2-oxoindolin-3-ylidene)-2-(6-(pyrrolidin-1-ylsulfonyl)-[1,3]dithiolo[4,5-b]quinoxalin-2-ylidene)acetohydrazide]: the half-maximal inhibitory concentration (IC50) in the data set on HepG2 came out at 41.9 ± 2.5 µM; with HCT-116 it was 22 ± 1.7 µM.
`CCOC(=O)C(C(C)=O)=C1Sc2nc3ccc(S(=O)(=O)N4CCCC4)cc3nc2S1` [Compound 10f, Ethyl 3-oxo-2-(6-(pyrrolidin-1-ylsulfonyl)-[1,3]dithiolo[4,5-b]quinoxalin-2-ylidene)butanoate]: the “Selectivity index (SI)” value in the data set with MDA-MB-231 came out at 4.41; with HepG2, 1.76; in the data set on HCT-116, 3.69; in the data set with MCF-7 it was 5.27. The same molecule showed a half-maximal inhibitory concentration (IC50) at 24 h in [1] of 46.2 ± 2.4 µM. Further, the IC50 was determined as 26.8 ± 1.9 µM in the data set on HepG2; 12.5 ± 1 µM with HCT-116; 8.78 ± 0.6 µM in the data set on MCF-7 (MCF-7, MTT, 24 h).
For the molecule `O=C1CCCCC1=C1Sc2nc3ccc(S(=O)(=O)N4CCCC4)cc3nc2S1` [Compound 12, 2-(6-(Pyrrolidin-1-ylsulfonyl)-[1,3]dithiolo[4,5-b]quinoxalin-2-ylidene)cyclohexan-1-one], the “Selectivity index (SI)” value in the data set with MDA-MB-231 came out at 36.12; in the data set on HepG2 it was 9.89; in the data set on HCT-116 it was 10.26; with MCF-7, 21.37. The “Fold increase of potency as compared with doxorubicin” value came to 1.41 fold in the data set on MDA-MB-231 (MDA-MB-231) and 1.09 fold in the data set with MCF-7 (MCF-7). In [1], this molecule returned a half-maximal inhibitory concentration (IC50) at 24 h of 81.6 ± 4.1 µM. The “Cell cycle distribution %G2/M” value in the data set with MCF-7 cells [2] (untreated control 12.55) is listed as 7.32%. For the same molecule, in the data set with MCF-7 cells [2] (untreated control 57.66), the “Cell cycle distribution %G0-G1” value stood at 48.16%. The “Increase in early apoptosis compared to the control” value in the data set on MCF-7 cells [3] (MCF-7) came out at 54.59 folds. Further, the “Increase in late apoptosis compared to the control” value in the data set with MCF-7 cells [3] (MCF-7) amounted to 79.33 folds. Besides, the “Apoptosis Late” value in the data set with MCF-7 cells [3] (MCF-7, at IC50 for 24 h, control 0.15) is 11.9%. Besides, in the data set with MCF-7 cells [3] (MCF-7, at IC50 for 24 h, control 0.44), the “Apoptosis Early” value worked out at 24.02%. In the data set on MCF-7 cells [3] (MCF-7, at IC50 for 24 h, control 1.25), this molecule registered a Necrosis of 6.16%. In addition, the “Apoptosis Total” value in the data set with MCF-7 cells [3] (MCF-7, at IC50 for 24 h, control 1.84) is on record as 42.08%. The “RT-PCR results fold change p53 (pro-apoptotic)” value with p53 amounted to 4.97 fold. Further, the IC50 against EGFR^Wt (Enzyme inhibitory activity IC50 EGFR^Wt) was 0.19 ± 0.009 µM; at EGFR^(L858R) (Enzyme inhibitory activity IC50 EGFR^(L858R)), 0.121 ± 0.007 µM; on VEGFR2 (Enzyme inhibitory activity IC50 VEGFR2), 0.42 ± 0.021 µM; with HepG2 it was 8.25 ± 0.6 µM; in the data set with HCT-116, 7.95 ± 0.5 µM; in the data set with MCF-7 (Homo sapiens, MCF7, 24 h), 3.82 ± 0.2 µM. The inhibition at 10 µM on EGFR^Wt (read-out: Inhibitory% EGFR^Wt) came to 85.4%; at EGFR^(L858R) (read-out: Inhibitory% EGFR^(L858R)), 87%; at VEGFR2 (read-out: Inhibitory% VEGFR2), 78.9%.
For the molecule `CCOC(=O)C(C#N)=C1Sc2nc3ccc(S(=O)(=O)N4CCCC4)cc3nc2S1` [Compound 10b, Ethyl 2-cyano-2-(6-(pyrrolidin-1-ylsulfonyl)-[1,3]dithiolo[4,5-b]quinoxalin-2-ylidene)acetate], the results for the half-maximal inhibitory concentration (IC50) in the data set on HepG2 and with HCT-116 were 80.3 ± 4.1 µM and 87.4 ± 4.2 µM, respectively.
In the same order, the values of `N#CC(C#N)=C1Sc2nc3ccc(S(=O)(=O)N4CCCC4)cc3nc2S1` [Compound 10a, 2-(6-(Pyrrolidin-1-ylsulfonyl)-[1,3]dithiolo[4,5-b]quinoxalin-2-ylidene)malononitrile] are 89.7 ± 4.5 µM and 93.8 ± 4.7 µM.
Regarding `O=S(=O)(c1ccc2nc(Cl)c(Cl)nc2c1)N1CCCC1` [Compound 7, 2,3-Dichloro-6-(pyrrolidin-1-ylsulfonyl)quinoxaline], the figures for the concentration for half-maximal inhibition (IC50) with HepG2 and in the data set on HCT-116 were 48.7 ± 2.8 µM and 38.1 ± 2.2 µM, respectively.
In the same order, the values of `CC1=NNC(=O)C1=C1Sc2nc3ccc(S(=O)(=O)N4CCCC4)cc3nc2S1` [Compound 14, 5-Methyl-4-(6-(pyrrolidin-1-ylsulfonyl)-[1,3]dithiolo[4,5-b]quinoxalin-2-ylidene)-2,4-dihydro-3H-pyrazol-3-one] are 69 ± 3.9 µM and 71.2 ± 3.8 µM.
For `COc1ccc(C=NNC(=O)C(C#N)=C2Sc3nc4ccc(S(=O)(=O)N5CCCC5)cc4nc3S2)cc1` [Compound 10d, 2-Cyano-N′-(4-methoxybenzylidene)-2-(6-(pyrrolidin-1-ylsulfonyl)-[1,3]dithiolo[4,5-b]quinoxalin-2-ylidene)acetohydrazide], in that order: 32.1 ± 2.2 µM and 18.4 ± 1.4 µM.
In the case of `O=C1NC(=O)C(=C2Sc3nc4ccc(S(=O)(=O)N5CCCC5)cc4nc3S2)C(=O)N1` [Compound 18, 5-(6-(Pyrrolidin-1-ylsulfonyl)-[1,3]dithiolo[4,5-b]quinoxalin-2-ylidene)pyrimidine-2,4,6(1H,3H,5H)-trione], the IC50 is 83.4 ± 4.3 µM in the data set on HepG2; greater than 100 µM in the data set with HCT-116; 62.8 ± 3.4 µM in the data set on MCF-7 (Homo sapiens, MCF7, 24 h).
Consider `CC1=NN(c2ccccc2)C(=O)C1=C1Sc2nc3ccc(S(=O)(=O)N4CCCC4)cc3nc2S1` [Compound 16, 5-Methyl-2-phenyl-4-(6-(pyrrolidin-1-ylsulfonyl)-[1,3]dithiolo[4,5-b]quinoxalin-2-ylidene)-2,4-dihydro-3H-pyrazol-3-one], for which the concentration for half-maximal inhibition (IC50) in the data set with HepG2 and in the data set on HCT-116 was greater than 100 µM each time.
